Laboratory results reported in US20230095199A1, “DIMETHYL SULFOXIDE (DMSO) FORMULATIONS FOR TREATING AUTISM” (Abela Pharmaceuticals, Inc., priority 2010, published 2023).
Entries after “also recorded” stand apart in the source; their conditions may differ.

Test system: patient, diagnosed with an autism spectrum disorder
Experiment: Case treatment of a patient with autism spectrum disorder with oral MSM and/or DMSO
Type: in vivo
Method: A patient, diagnosed with an autism spectrum disorder, was treated with a combination of MSM and DMSO, beginning. […] In some embodiments, combination of MSM and DMSO unexpectedly improve one or more symptoms associated with autism, as compared to administration of MSM or DMSO individually. In several embodiments, in addition to the beneficial therapeutic effects, the combination of MSM and DMSO reduces one or more of the side effects typically associated with DMSO administration (e.g., odor, gastrointestinal distress). In some embodiments, these unexpected effects are the result of the continued (e.g., daily) administration of MSM/DMSO, while in other embodiments, these effects are long-term (e.g., persist beyond the period of continued administration of MSM/DMSO). Moreover, in certain embodiments, combinations of MSM and DMSO result in synergistic therapeutic effects for one or more of the symptoms of autism. In some embodiments, these synergistic effects are the result of the continued (e.g., daily) administration of MSM/DMSO, while in other embodiments, these effects are long-term (e.g., persist beyond the period of continued administration of MSM/DMSO).
The patient's symptoms include stimming, nighttime stimming, hyperactive gag reflex, impaired social interaction, a lack of vocalization and communication, delayed success with toilet training, and constipation. DMSO/MSM treatment was initiated for patient. The patient was treated with 4.7 grams of oral MSM solution daily (4½ teaspoons daily of a 15% solution). […] The patient was also treated with 4.7 grams of MSM and 0.025 grams of DMSO in an oral solution (4½ teaspoons daily of 15% MSM and 0.1% DMSO).
The patient was also treated with two short term bolus treatments with increased amounts of DMSO. In addition to the 4.7 g of MSM and 0.025 g of DMSO in an oral solution, the patient received an additional 4.8 g/day of DMSO for a short duration of 10 days (1 teaspoon, 90% oral solution). […] The patient's chronic constipation was also eliminated during these treatment cycles of higher doses of DMSO.
The patient was further treated with an oral formulation comprising 4.7 g of MSM and […] of DMSO. Improvements in communication, social interaction, and constipation continued at this dosage.

[1] = additional 4.8 g/day DMSO (90% oral solution) for 10 days on top of 4.7 g MSM and 0.025 g DMSO
[2] = after one month of 4.7 g MSM daily

Row | SMILES | ability to vocalize [1] | chronic constipation [1] | different words vocalized during a session (larger dose of DMSO for 10 days in addition to normal treatment) | frequency of nightly stimming (4.7 g MSM daily (15% solution)) | time until improvement of stimming was noted (4.7 g MSM daily (15% solution)) | reduction of daytime stimming (4.7 g oral MSM daily (15% solution)) | incidents of hyperactive gag reflex (4.7 g oral MSM daily (15% solution), within 12 weeks) | reduction of stimming (especially night-time stimming) (4.7 g oral MSM daily (15% solution, 4½ teaspoons), within 12 weeks) | signs known [2] | time engaged in an activity [2] | vocalization [2]
1 | C[S+](C)[O-] [DMSO, Dimethyl sulfoxide] | improved dramatically | eliminated; also recorded: vastly improved | six |  |  |  |  |  |  |  | 
2 | CS(C)(=O)=O [MSM, Methylsulfonylmethane] |  |  |  | reduced from every night to once every two or three weeks | ≤ 12 weeks | about 80% | reduced from multiple times per day to only a few times per month | about 90% | gained an additional sign | 8 to 10 min | became more vocal
